Results on 14 compounds are retold here after patent US20240025919A1, “AZA-TETRACYCLIC OXAZEPINE COMPOUNDS AND USES THEREOF” (Genentech, Inc., priority 2022, published 2024).

The target in one assay is KRAS WT (Homo sapiens (Human), UniProt P01116). Description: KRAS WT Biochemical Assay, BODIPY-GDP Exchange TR-FRET (Example 501; 3 nM KRAS WT, 3 nM SOS1, 60-minute incubation). As for the experimental part:
Example 501: KRAS WT Biochemical Assay, BODIPY-GDP Exchange TR-FRET. Biochemical compound potencies are assessed by evaluating inhibition of SOS1-mediated nucleotide exchange in KRAS WT. In this assay, the SOS1-promoted exchange of fluorescently-labeled GDP (BOPIDY-GDP) is monitored by time-resolved fluorescence resonance energy transfer (TR-FRET). Compounds solubilized in DMSO are dispensed as concentration series into 384-well white assay plates, and 5 uL assay buffer (20 mM HEPES, pH 7.5, 50 mM NaCl, 10 mM MgCl2, 0.01% Tween-20 and 1 mM dithiothreitol) is added just prior to the start of the assay. A preformed complex of 3 nM biotin-tagged recombinant human KRAS WT and 0.3 nM terbium-labeled streptavidin (CisBIO) prepared in 5 uL/well assay buffer is added and allowed to incubate for 10-minutes at room temperature. The reaction is initiated with the addition of 5 uL 3 nM recombinant human SOS1 and 300 nM BODIPY-GDP in assay buffer. After a 60-minute incubation, the fluorescence is measured with excitation at 337 nm and emission at 490 and 520 nm. The TR-FRET ratio is determined as the fluorescence at 520 nm divided by the fluorescence at 490 nm multiplied by 10,000. The results are normalized to percent inhibition based on control samples: DMSO (0% inhibition) and control compound at a concentration that inhibits completely (100% inhibition). The normalized TR-FRET results are plotted against compound concentration, and the data are fit to a 4-parameter Hill equation to determine the IC50 values.

The next assay deals with KRAS G12D (Homo sapiens (Human), UniProt P01116, G12D). Description: KRAS G12D LoEnz Biochemical Assay, BODIPY-GDP Exchange TR-FRET (SOS1-mediated nucleotide exchange). The following applies: read-out: KRas (G12D) GDP HTRF IC50. As for the experimental part: Example 500: KRAS G12D LoEnz Biochemical Assay, BODIPY-GDP Exchange TR-FRET. Biochemical compound potencies are assessed by evaluating inhibition of SOS1I-mediated nucleotide exchange in KRAS G121D. In this assay, the SOS1-promoted exchange of fluorescently-labeled GDP (BOPIDY-GDP) is monitored by time-resolved fluorescence resonance energy transfer (TR-FRET). Compounds solubilized in DMS0 are dispensed as concentration series into 384-well white assay plates. A preformed complex of biotin-tagged recombinant human KRAS (0.06 nM mutant G1 2D) and 0.06 nM terbium-labeled streptavidin (CisBIO) prepared in 10 uL/well assay buffer (20 mM HEPES, pH 7.5, 50 mM NaCl, 10 mMMMgCl2, 0.0100 Tween-20 and 1 mM dithiothreitol) is added and allowed to incubate for 10-minutes at room temperature. The reaction is initiated with the addition of 5 uL 300 nM recombinant human SOS1 and 300 nM BODIPY-GDP in assay buffer. After a 120-minute incubation, the fluorescence is measured with excitation at 337 nm and emission at 490 and 520 nm. The TR-FRET ratio is determined as the fluorescence at 520 nm divided by the fluorescence at 490 nm multiplied by 10,000. The results are normalized to percent inhibition based on control samples: DMSO (0% inhibition) and control compound at a concentration that inhibits completely (100% inhibition). The normalized TR-FRET results are plotted against compound concentration, and the data are fit to a 4-parameter Hill equation to determine the IC50 values.

Where two headings read alike, the source gives them in different places.

Chain of KRAS G12D (P01116-2 other isoform, or with tags, fused parts or gaps G12D): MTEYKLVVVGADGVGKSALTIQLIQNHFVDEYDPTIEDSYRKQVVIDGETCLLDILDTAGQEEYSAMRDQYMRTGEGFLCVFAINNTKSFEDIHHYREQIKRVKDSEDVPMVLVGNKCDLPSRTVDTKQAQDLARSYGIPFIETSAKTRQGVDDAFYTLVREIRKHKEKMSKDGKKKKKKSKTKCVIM
Chain of KRAS WT (P01116-2 other isoform, or with tags, fused parts or gaps): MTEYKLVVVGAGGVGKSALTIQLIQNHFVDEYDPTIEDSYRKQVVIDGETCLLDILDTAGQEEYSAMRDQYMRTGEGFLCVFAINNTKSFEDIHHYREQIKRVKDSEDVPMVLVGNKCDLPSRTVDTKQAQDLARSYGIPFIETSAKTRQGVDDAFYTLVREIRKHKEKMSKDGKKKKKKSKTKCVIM

For `Cc1nc(N)cc(-c2nc3c4c(nc(OCC5(CN6CC7COCC(C6)C7(F)F)CC5)nc4c2F)N2C[C@H]4CC[C@H](N4)[C@H]2[C@H](C)O3)c1C(F)(F)F` [Compound 266, 4-((5S,5aS,6S,9R)-12-((1-((9,9-difluoro-3-oxa-7-azabicyclo[3.3.1]nonon-7-yl)methyl)cyclopropyl)methoxy)-1-fluoro-5-methyl-5a,6,7,8,9,10-hexahydro-5H-4-oxa-3,10a,11,13,14-pentaaza-6,9-methanonaphtho[1,8-ab]heptalene-2-yl)-6-methyl-5-(trifluoromethyl)pyridin-2-amine], the IC50 (commonly the concentration that inhibits the measured activity by half) at KRAS WT (read-out: KRas HTRF IC50) was determined as 1100 nM.

With `Cc1c(F)c(N)cc(-c2nc3c4c(nc(OC[C@@]56CCCN5C[C@H](F)C6)nc4c2F)N2C[C@H]4CC[C@H](N4)[C@@H]2[C@H](C)O3)c1C(F)(F)F` (single isomer, unassigned) [237 (isomer 1)], the IC50 at KRAS G12D was determined as 1910 nM; at KRAS WT (read-out: KRas HTRF IC50), 1020 nM.

For the compound `Fc1c(-c2cccc3cccc(Cl)c23)nc2c3c(ncnc13)N1C[C@H]3CC[C@H](N3)[C@H]1CO2` [Compound 53, (5aS,6S,9R)-2-(8-Chloronaphthalen-1-yl)-1-fluoro-5a,6,7,8,9,10-hexahydro-5H-4-oxa-3,10a,11,13,14-pentaaza-6,9-methanonaphtho[1,8-ab]heptalene], the IC50 at KRAS G12D was 22200 nM; at KRAS WT (read-out: KRas(wt) GDP HTRF IC50) it was 200000 nM.

`Cc1cc(N)c(F)c(-c2nc3c4c(ncnc4c2Cl)N2C[C@H]4CC[C@H](N4)[C@H]2[C@H](C)O3)c1C(F)(F)F` (atropisomer, axis not shown) [Compound 95, 3-((5S,5aS,6S,9R)-1-chloro-5-methyl-5a,6,7,8,9,10-hexahydro-5H-4-oxa-3,10a,11,13,14-pentaaza-6,9-methanonaphtho[1,8-ab]heptalen-2-yl)-2-fluoro-5-methyl-4-(trifluoromethyl)aniline]: at KRAS G12D, the concentration for half-maximal inhibition (IC50) was 26.6 nM.

On to `Cc1c(F)c(N)c(F)c(-c2nc3c4c(nc(OC[C@@]56CCCN5CC5(CC5(F)F)C6)nc4c2F)N2C[C@H]4CC[C@H](N4)[C@H]2[C@H](C)O3)c1C(F)(F)F` (stereo partly drawn) [Compound 225, 3-((5S,5aS,6S,9R)-12-(((7a′S)-2,2-Difluorodihydro-1′H,3′H-spiro[cyclopropane-1,2′-pyrrolizin]-7a′(5′H)-yl)methoxy)-1-fluoro-5-methyl-5a,6,7,8,9,10-hexahydro-5H-4-oxa-3,10a,11,13,14-pentaaza[6,9]methanonaphtho[1,8-ab]heptalene-2-yl)-2,6-difluoro-5-methyl-4-(trifluoromethyl)aniline], for which the results for the half-inhibitory concentration (IC50) at KRAS G12D and on KRAS WT (read-out: KRas HTRF IC50) were 0.25 nM and 4.2 nM, respectively.

For `C[C@@H]1Oc2nc(-c3cc(N)c(F)c(F)c3CC(F)(F)F)c(F)c3nc(OC[C@@]45CCCN4C[C@H](F)C5)nc(c23)N2C[C@H]3CC[C@H](N3)[C@@H]12` [Compound 183, 2,3-Difluoro-5-((5S,5aS,6S,9R)-1-fluoro-12-(((2R,7aS)-2-fluorotetrahydro-1H-pyrrolizin-7a(5H)-yl)methoxy)-5-methyl-5a,6,7,8,9,10-hexahydro-5H-4-oxa-3,10a,11,13,14-pentaaza-6,9-methanonaphtho[1,8-ab]heptalene-2-yl)-4-(2,2,2-trifluoroethyl)aniline], the half-inhibitory concentration (IC50) is 0.21 nM at KRAS G12D and 4.46 nM at KRAS WT (read-out: KRas HTRF IC50).

On to `Cc1c(F)c(N)cc(-c2nc3c4c(nc(OCC5(CN6CCOCC6)CC5)nc4c2F)N2C[C@H]4CC[C@H](N4)[C@H]2[C@H](C(F)(F)F)O3)c1C(F)(F)F` [Compound 249, 2-Fluoro-5-((5R,5aS,6S,9R)-1-fluoro-12-((1-(morpholinomethyl)cyclopropyl)methoxy)-5-(trifluoromethyl)-5a,6,7,8,9,10-hexahydro-5H-4-oxa-3,10a,11,13,14-pentaaza-6,9-methanonaphtho[1,8-ab]heptalene-2-yl)-3-methyl-4-(trifluoromethyl)aniline], for which the IC50 was 0.22 nM at KRAS G12D and 1.37 nM at KRAS WT (read-out: KRas HTRF IC50).

As for `Cc1nc(N)cc(-c2nc3c4c(nc(OCC5(CN6CC7CCC6CO7)CC5)nc4c2F)N2C[C@H]4CC[C@H](N4)[C@H]2[C@H](C)O3)c1C(F)(F)F` [Compound 211, 4-((5S,5aS,6S,9R)-12-((1-((2-Oxa-5-azabicyclo[2.2.2]octan-5-yl)methyl)cyclopropyl)methoxy)-1-fluoro-5-methyl-5°,6,7,8,9,10-hexahydro-5H-4-oxa-3,10°,11,13,14-pentaaza-6,9-methanonaphtho[1,8-ab]heptalen-2-yl)-6-methyl-5-(trifluoromethyl)pyridin-2-amine], the half-maximal inhibitory concentration (IC50) on KRAS G12D was found to be 0.21 nM; at KRAS WT (read-out: KRas HTRF IC50), 17.8 nM.

As to `Cc1nc(N)cc(-c2nc3c4c(nc(OC[C@@]56CCCN5CC5(CC5(F)F)C6)nc4c2F)N2C[C@H]4CC[C@H](N4)[C@H]2[C@H](C(F)(F)F)O3)c1C(F)(F)F` (stereo partly drawn) [Compound 254, 4-((5R,5aS,6S,9R)-12-(((7a′S)-2,2-Difluorodihydro-1′H,3′H-spiro[cyclopropane-1,2′-pyrrolizin]-7a′(5′H)-yl)methoxy)-1-fluoro-5-(trifluoromethyl)-5a,6,7,8,9,10-hexahydro-5H-4-oxa-3,10a,11,13,14-pentaaza[6,9]methanonaphtho[1,8-ab]heptalene-2-yl)-6-methyl-5-(trifluoromethyl)pyridin-2-amine], the figures for the half-inhibitory concentration (IC50) at KRAS G12D and on KRAS WT (read-out: KRas HTRF IC50) were 0.49 nM and 1.25 nM, respectively.

`Cc1c(Cl)c(N)cc(-c2nc3c4c(nc(OC[C@@]56CCCN5C[C@H](F)C6)nc4c2F)N2C[C@H]4CC[C@H](N4)[C@H]2[C@H](C)O3)c1C(F)(F)F` (single isomer, unassigned) [Compound 200]: the IC50 on KRAS G12D amounted to 0.1 nM.

Consider `Cc1c(F)c(N)cc(-c2nc3c4c(nc(OC[C@H]5CC[C@@H]6C(=O)N(C)CCN56)nc4c2F)N2C[C@H]4CC[C@H](N4)[C@H]2[C@H](C)O3)c1C(F)(F)F` (relative stereo) [Compound 123, 6-((((5S,5aS,6S,9R)-2-(5-Amino-4-fluoro-3-methyl-2-(trifluoromethyl)phenyl)-1-fluoro-5-methyl-5a,6,7,8,9,10-hexahydro-5H-4-oxa-3,10a,11,13,14-pentaaza-6,9-methanonaphtho[1,8-ab]heptalen-12-yl)oxy)methyl)-2-methylhexahydropyrrolo[1,2-a]pyrazin-1(2H)-one], for which the IC50 on KRAS G12D came out at 0.7 nM.

Consider `Cc1c(F)c(N)cc(-c2nc3c4c(nc(OC[C@@]56CCCN5C[C@H](F)C6)nc4c2F)N2C[C@H]4CC[C@H](N4)[C@H]2[C@@H](C(F)(F)F)O3)c1C(F)(F)F` [Compound 246, 2-Fluoro-5-((5S,5aS,6S,9R)-1-fluoro-12-(((2R,7aS)-2-fluorotetrahydro-1H-pyrrolizin-7a(5H)-yl)methoxy)-5-(trifluoromethyl)-5a,6,7,8,9,10-hexahydro-5H-oxa-3,10a,11,13,14-pentaaza-6,9-methanonaphtho[1,8-ab]heptalene-2-yl)-3-methyl-4-(trifluoromethyl)aniline], for which the IC50 on KRAS WT (read-out: KRas HTRF IC50) worked out at 1200 nM.

Turning to `C[C@@H]1Oc2nc(-c3cc(N)cc(F)c3C(F)(F)F)c(F)c3nc(OC[C@H]4CC[C@@H]5COC(C)(C)CN45)nc(c23)N2C[C@H]3CC[C@H](N3)[C@@H]12` (relative stereo) [Compound 125, 3-((5S,5aS,6S,9R)-12-((3,3-dimethylhexahydro-1H-pyrrolo[2,1-c][1,4]oxazin-6-yl)methoxy)-1-fluoro-5-methyl-5a,6,7,8,9,10-hexahydro-5H-4-oxa-3,10a,11,13,14-pentaaza-6,9-methanonaphtho[1,8-ab]heptalen-2-yl)-5-fluoro-4-(trifluoromethyl)aniline], the half-inhibitory concentration (IC50) at KRAS G12D was determined as 0.23 nM.

As for `Cc1cc(N)c(Cl)c(-c2nc3c4c(nc(OC[C@@]56CCCN5C[C@H](F)C6)nc4c2F)N2C[C@H]4CC[C@H](N4)[C@H]2[C@H](C)O3)c1C(F)(F)F` [Compound 199, 2-Chloro-3-((5S,5aS,6S,9R)-1-fluoro-12-(((2R,7aS)-2-fluorotetrahydro-1H-pyrrolizin-7a(5H)-yl)methoxy)-5-methyl-5a,6,7,8,9,10-hexahydro-5H-4-oxa-3,10a,11,13,14-pentaaza-6,9-methanonaphtho[1,8-ab]heptalen-2-yl)-5-methyl-4-(trifluoromethyl)aniline], at KRAS G12D, the IC50 turned out to be 0.17 nM.
